Test results reported in publication PMC4657098, “A Review of the Updated Pharmacophore for the Alpha 5 GABA(A) Benzodiazepine Receptor Model” (International Journal of Medicinal Chemistry, 2015).

Key:
[1] = target: T1, α5β3γ2 GABAA receptor (Homo sapiens, UniProt P18507+P31644); assay: Oocyte electrophysiology, α5β3γ2; format: cell-based
T1 construct: expressed in transfected cells; host or cells: Xenopus oocytes

[2] = system: other receptors (PDSP panel); assay: Full PDSP panel receptor binding; conditions: NIMH PDSP, Case Western Reserve
[3] = target: T2, 5ht1a (Homo sapiens, UniProt P08908); assay: PDSP receptor binding, 5ht1a; conditions: PDSP primary screen at 10 µM
T2 construct: purchased NIMH PDSP (Psychoactive Drug Screening Program, Roth lab, Case Western Reserve)

[4] = target: T3, 5ht1b (Homo sapiens, UniProt P28222); assay: PDSP receptor binding, 5ht1b; conditions: PDSP primary screen at 10 µM
T3 construct: purchased NIMH PDSP (Psychoactive Drug Screening Program, Roth lab, Case Western Reserve)
T3 sequence (P28222 whole entry): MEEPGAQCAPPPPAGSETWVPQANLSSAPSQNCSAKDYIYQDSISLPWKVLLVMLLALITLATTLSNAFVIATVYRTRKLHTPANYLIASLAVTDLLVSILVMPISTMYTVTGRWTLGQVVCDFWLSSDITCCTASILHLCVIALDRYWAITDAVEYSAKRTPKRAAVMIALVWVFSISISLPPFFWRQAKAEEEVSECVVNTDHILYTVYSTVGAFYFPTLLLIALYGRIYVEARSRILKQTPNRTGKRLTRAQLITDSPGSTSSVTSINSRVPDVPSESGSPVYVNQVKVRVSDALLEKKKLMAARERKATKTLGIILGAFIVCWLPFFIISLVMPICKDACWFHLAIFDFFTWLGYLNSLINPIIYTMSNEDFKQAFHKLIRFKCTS

[5] = target: T4, 5ht1d (Homo sapiens, UniProt P28221); assay: PDSP receptor binding, 5ht1d; conditions: PDSP primary screen at 10 µM
T4 construct: purchased NIMH PDSP (Psychoactive Drug Screening Program, Roth lab, Case Western Reserve)

[6] = target: T5, 5ht1e (Homo sapiens, UniProt P28566); assay: PDSP receptor binding, 5ht1e; conditions: PDSP primary screen at 10 µM
T5 construct: purchased NIMH PDSP (Psychoactive Drug Screening Program, Roth lab, Case Western Reserve)

[7] = target: T6, 5ht2a (Homo sapiens, UniProt P28223); assay: PDSP receptor binding, 5ht2a; conditions: PDSP primary screen at 10 µM
T6 construct: purchased NIMH PDSP (Psychoactive Drug Screening Program, Roth lab, Case Western Reserve)
T6 sequence (P28223 whole entry): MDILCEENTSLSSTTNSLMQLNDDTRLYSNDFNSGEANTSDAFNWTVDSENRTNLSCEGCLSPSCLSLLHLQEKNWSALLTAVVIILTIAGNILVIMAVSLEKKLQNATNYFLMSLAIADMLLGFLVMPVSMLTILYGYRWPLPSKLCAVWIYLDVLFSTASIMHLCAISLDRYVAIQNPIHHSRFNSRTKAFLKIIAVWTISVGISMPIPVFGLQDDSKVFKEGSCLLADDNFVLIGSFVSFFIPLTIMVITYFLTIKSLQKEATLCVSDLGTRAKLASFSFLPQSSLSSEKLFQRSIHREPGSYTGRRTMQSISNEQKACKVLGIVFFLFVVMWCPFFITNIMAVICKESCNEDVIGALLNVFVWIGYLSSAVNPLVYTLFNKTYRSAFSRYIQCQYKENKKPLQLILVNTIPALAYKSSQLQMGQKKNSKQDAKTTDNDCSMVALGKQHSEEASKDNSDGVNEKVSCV

[8] = target: T7, 5ht2b (Homo sapiens, UniProt P41595); assay: PDSP receptor binding, 5ht2b; conditions: PDSP primary screen at 10 µM
T7 construct: purchased NIMH PDSP (Psychoactive Drug Screening Program, Roth lab, Case Western Reserve)

[9] = target: T8, 5ht2c (Homo sapiens, UniProt P28335); assay: PDSP receptor binding, 5ht2c; conditions: PDSP primary screen at 10 µM
T8 construct: purchased NIMH PDSP (Psychoactive Drug Screening Program, Roth lab, Case Western Reserve)

[10] = target: T9, 5ht3 (Homo sapiens, UniProt P46098); assay: PDSP receptor binding, 5ht3; conditions: PDSP primary screen at 10 µM
T9 construct: purchased NIMH PDSP (Psychoactive Drug Screening Program, Roth lab, Case Western Reserve)
T9 sequence (P46098 24-478): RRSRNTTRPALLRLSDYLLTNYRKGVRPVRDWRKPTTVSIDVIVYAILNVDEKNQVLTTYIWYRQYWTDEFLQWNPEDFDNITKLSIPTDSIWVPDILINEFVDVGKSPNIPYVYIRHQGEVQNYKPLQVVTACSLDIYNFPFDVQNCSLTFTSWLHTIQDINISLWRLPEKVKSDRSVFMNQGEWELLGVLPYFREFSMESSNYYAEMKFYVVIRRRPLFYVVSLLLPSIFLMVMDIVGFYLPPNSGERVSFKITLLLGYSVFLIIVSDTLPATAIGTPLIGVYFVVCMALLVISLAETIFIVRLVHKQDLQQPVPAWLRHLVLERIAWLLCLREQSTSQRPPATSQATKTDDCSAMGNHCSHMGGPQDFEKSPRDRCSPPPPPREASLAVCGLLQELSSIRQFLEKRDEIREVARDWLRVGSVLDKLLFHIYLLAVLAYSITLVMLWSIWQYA

[11] = target: T10, 5ht5a (Homo sapiens, UniProt P47898); assay: PDSP receptor binding, 5ht5a; conditions: PDSP primary screen at 10 µM
T10 construct: purchased NIMH PDSP (Psychoactive Drug Screening Program, Roth lab, Case Western Reserve)

[12] = target: T11, 5ht6 (Homo sapiens, UniProt P50406); assay: PDSP receptor binding, 5ht6; conditions: PDSP primary screen at 10 µM
T11 construct: purchased NIMH PDSP (Psychoactive Drug Screening Program, Roth lab, Case Western Reserve)

[13] = target: T12, 5ht7 (Homo sapiens, UniProt P34969); assay: PDSP receptor binding, 5ht7; conditions: PDSP primary screen at 10 µM
T12 construct: purchased NIMH PDSP (Psychoactive Drug Screening Program, Roth lab, Case Western Reserve)
T12 sequence (P34969 whole entry): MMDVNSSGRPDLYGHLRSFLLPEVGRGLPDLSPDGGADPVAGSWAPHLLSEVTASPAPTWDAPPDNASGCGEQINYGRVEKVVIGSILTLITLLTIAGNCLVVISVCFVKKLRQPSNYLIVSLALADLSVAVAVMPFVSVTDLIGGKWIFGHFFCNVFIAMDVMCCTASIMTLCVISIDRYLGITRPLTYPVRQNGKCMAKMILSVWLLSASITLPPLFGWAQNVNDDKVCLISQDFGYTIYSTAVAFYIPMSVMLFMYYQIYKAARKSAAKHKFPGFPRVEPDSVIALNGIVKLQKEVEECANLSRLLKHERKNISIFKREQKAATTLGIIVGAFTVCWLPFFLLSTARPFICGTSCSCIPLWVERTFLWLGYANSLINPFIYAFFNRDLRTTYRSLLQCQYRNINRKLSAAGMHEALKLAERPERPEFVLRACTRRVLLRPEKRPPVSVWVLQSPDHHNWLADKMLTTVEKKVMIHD

[14] = target: T13, α1A (Homo sapiens, UniProt P35348); assay: PDSP receptor binding, α1A; conditions: PDSP primary screen at 10 µM
T13 construct: purchased NIMH PDSP (Psychoactive Drug Screening Program, Roth lab, Case Western Reserve)

[15] = PDSP receptor binding, β1B; conditions: PDSP primary screen at 10 µM
[16] = target: T14, α2A (Homo sapiens, UniProt P08913); assay: PDSP receptor binding, α2A; conditions: PDSP primary screen at 10 µM
T14 construct: purchased NIMH PDSP (Psychoactive Drug Screening Program, Roth lab, Case Western Reserve)

[17] = target: T15, α2B (Homo sapiens, UniProt P18089); assay: PDSP receptor binding, α2B; conditions: PDSP primary screen at 10 µM
T15 construct: purchased NIMH PDSP (Psychoactive Drug Screening Program, Roth lab, Case Western Reserve)
T15 sequence (P18089 whole entry): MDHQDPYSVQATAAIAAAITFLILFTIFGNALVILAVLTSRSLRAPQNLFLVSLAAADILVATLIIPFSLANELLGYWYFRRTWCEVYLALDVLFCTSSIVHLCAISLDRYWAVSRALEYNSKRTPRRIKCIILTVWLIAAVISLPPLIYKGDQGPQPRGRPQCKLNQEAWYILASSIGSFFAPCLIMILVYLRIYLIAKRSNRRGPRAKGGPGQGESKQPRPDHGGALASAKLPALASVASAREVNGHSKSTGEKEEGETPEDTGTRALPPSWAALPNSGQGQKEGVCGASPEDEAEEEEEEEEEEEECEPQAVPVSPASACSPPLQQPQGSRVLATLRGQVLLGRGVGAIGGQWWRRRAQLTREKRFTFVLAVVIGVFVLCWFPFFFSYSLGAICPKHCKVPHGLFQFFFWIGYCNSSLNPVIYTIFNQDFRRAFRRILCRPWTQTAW

[18] = target: T16, α2C (Homo sapiens, UniProt P18825); assay: PDSP receptor binding, α2C; conditions: PDSP primary screen at 10 µM
T16 construct: purchased NIMH PDSP (Psychoactive Drug Screening Program, Roth lab, Case Western Reserve)

[19] = target: T17, Beta1 (Homo sapiens, UniProt P08588); assay: PDSP receptor binding, Beta1; conditions: PDSP primary screen at 10 µM
T17 construct: purchased NIMH PDSP (Psychoactive Drug Screening Program, Roth lab, Case Western Reserve)

[20] = target: T18, Beta2 (Homo sapiens, UniProt P07550); assay: PDSP receptor binding, Beta2; conditions: PDSP primary screen at 10 µM
T18 construct: purchased NIMH PDSP (Psychoactive Drug Screening Program, Roth lab, Case Western Reserve)

[21] = target: T19, CB1 (Homo sapiens, UniProt P21554); assay: PDSP receptor binding, CB1; conditions: PDSP primary screen at 10 µM
T19 construct: purchased NIMH PDSP (Psychoactive Drug Screening Program, Roth lab, Case Western Reserve)

[22] = target: T20, CB2 (Homo sapiens, UniProt P34972); assay: PDSP receptor binding, CB2; conditions: PDSP primary screen at 10 µM
T20 construct: purchased NIMH PDSP (Psychoactive Drug Screening Program, Roth lab, Case Western Reserve)
T20 sequence (P34972 whole entry): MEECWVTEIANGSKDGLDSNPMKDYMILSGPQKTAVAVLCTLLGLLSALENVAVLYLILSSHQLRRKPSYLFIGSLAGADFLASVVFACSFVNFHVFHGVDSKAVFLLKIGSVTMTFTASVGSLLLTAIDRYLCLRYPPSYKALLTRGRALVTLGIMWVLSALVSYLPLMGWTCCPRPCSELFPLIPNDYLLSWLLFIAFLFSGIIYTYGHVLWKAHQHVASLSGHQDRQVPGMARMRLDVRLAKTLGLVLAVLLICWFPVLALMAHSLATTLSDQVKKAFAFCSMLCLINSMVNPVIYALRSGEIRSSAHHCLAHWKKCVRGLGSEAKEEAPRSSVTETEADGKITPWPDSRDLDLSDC

[23] = target: T21, D1 (Homo sapiens, UniProt P21728); assay: PDSP receptor binding, D1; conditions: PDSP primary screen at 10 µM
T21 construct: purchased NIMH PDSP (Psychoactive Drug Screening Program, Roth lab, Case Western Reserve)
T21 sequence (P21728 whole entry): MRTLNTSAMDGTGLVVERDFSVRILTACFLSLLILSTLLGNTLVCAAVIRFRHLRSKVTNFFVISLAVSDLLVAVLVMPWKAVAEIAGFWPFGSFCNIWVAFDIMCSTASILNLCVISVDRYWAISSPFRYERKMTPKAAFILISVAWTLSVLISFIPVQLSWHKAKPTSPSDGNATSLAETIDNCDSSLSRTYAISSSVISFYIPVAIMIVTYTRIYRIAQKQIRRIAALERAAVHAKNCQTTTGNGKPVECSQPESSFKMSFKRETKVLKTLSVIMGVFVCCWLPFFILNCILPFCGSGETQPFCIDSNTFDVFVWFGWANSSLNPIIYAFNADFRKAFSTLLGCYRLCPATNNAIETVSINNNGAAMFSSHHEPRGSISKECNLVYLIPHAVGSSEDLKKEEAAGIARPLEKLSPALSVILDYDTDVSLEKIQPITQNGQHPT

[24] = target: T22, D2 (Homo sapiens, UniProt P14416); assay: PDSP receptor binding, D2; conditions: PDSP primary screen at 10 µM
T22 construct: purchased NIMH PDSP (Psychoactive Drug Screening Program, Roth lab, Case Western Reserve)

[25] = target: T23, D3 (Homo sapiens, UniProt P35462); assay: PDSP receptor binding, D3; conditions: PDSP primary screen at 10 µM
T23 construct: purchased NIMH PDSP (Psychoactive Drug Screening Program, Roth lab, Case Western Reserve)

[26] = target: T24, D4 (Homo sapiens, UniProt P21917); assay: PDSP receptor binding, D4; conditions: PDSP primary screen at 10 µM
T24 construct: purchased NIMH PDSP (Psychoactive Drug Screening Program, Roth lab, Case Western Reserve)
T24 sequence (P21917 whole entry): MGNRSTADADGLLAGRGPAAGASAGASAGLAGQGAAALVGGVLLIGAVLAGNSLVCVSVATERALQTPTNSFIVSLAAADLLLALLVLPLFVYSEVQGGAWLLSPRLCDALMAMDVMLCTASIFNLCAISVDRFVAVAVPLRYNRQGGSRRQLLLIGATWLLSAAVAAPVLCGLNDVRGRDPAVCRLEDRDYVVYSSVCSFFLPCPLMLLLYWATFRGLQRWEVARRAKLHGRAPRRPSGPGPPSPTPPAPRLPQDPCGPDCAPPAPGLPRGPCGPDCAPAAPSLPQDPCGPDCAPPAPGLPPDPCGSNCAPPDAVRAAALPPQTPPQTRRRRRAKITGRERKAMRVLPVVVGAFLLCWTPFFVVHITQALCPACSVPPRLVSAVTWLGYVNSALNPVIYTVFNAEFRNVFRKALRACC

[27] = target: T25, D5 (Homo sapiens, UniProt P21918); assay: PDSP receptor binding, D5; conditions: PDSP primary screen at 10 µM
T25 construct: purchased NIMH PDSP (Psychoactive Drug Screening Program, Roth lab, Case Western Reserve)

T1 sequence (P28472 26-473): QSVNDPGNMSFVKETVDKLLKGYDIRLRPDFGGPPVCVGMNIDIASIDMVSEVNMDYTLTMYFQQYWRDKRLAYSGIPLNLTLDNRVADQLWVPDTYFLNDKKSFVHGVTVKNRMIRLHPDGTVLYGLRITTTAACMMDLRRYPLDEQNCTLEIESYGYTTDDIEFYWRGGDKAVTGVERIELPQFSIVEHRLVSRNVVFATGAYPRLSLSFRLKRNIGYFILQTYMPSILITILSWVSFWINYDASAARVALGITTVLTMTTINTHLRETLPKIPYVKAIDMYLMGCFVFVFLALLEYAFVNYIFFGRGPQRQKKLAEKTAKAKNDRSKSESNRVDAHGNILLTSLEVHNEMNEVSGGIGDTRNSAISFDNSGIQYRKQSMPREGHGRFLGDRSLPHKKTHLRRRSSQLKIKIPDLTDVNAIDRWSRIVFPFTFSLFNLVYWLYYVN
T1 sequence (P31644 32-462): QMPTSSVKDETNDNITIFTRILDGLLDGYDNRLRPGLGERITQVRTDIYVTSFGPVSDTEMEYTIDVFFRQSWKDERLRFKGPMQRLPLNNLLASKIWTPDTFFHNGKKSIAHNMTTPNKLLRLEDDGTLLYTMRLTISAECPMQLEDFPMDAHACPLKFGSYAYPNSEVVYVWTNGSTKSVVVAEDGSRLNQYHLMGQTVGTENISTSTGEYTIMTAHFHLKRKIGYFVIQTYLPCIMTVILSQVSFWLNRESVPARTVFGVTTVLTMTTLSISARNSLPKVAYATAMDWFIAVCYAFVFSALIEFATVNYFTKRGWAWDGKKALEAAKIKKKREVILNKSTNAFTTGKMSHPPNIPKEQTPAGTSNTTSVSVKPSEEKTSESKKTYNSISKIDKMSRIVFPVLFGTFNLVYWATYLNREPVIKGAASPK
T1 sequence (P18507 40-475): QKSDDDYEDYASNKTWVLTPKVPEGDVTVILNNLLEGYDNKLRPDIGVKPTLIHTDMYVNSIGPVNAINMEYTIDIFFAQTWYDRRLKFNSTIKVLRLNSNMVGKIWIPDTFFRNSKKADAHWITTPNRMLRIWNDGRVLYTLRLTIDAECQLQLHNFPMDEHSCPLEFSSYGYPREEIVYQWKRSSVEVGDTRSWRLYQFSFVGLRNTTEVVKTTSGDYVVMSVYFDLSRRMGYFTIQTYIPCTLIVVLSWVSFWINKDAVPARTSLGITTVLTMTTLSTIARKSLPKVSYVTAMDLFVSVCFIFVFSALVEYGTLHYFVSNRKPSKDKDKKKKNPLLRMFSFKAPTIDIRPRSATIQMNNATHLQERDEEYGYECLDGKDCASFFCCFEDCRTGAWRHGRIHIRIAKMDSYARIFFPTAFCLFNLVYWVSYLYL

In the case of `CCc1ccc2c(c1)C(=O)N(C)Cc1c(C(=O)OCCCOC(=O)c3ncn4c3CN(C)C(=O)c3cc(CC)ccc3-4)ncn1-2` [XLi-356 (10), 1,3-Bis(8-ethyl-5,6-dihydro-5-methyl-6-oxo-4H-imidazo[1,5a][1,4]benzodiazepine-3-carboxy) propyl diester], the “efficacy type at the α5 subtype” value [1] is reported as “weak agonist-antagonist”, the “full panel receptor binding” value [2] is reported as “do not bind to other receptors at levels of concern” and the 5ht1a binding [3] is reported as “∗ (“∗” indicates “primary missed” (<50% inhibition at 10 µM))”. The 5ht1b binding [4] was “∗ (“∗” indicates “primary missed” (<50% inhibition at 10 µM))”, the 5ht1d binding [5] was “∗ (“∗” indicates “primary missed” (<50% inhibition at 10 µM))” and the 5ht1e binding [6] was “∗ (“∗” indicates “primary missed” (<50% inhibition at 10 µM))”. For the same compound, the 5ht2a binding [7] was “∗ (“∗” indicates “primary missed” (<50% inhibition at 10 µM))”, the 5ht2b binding [8] was “∗ (“∗” indicates “primary missed” (<50% inhibition at 10 µM))” and the 5ht2c binding [9] was “∗ (“∗” indicates “primary missed” (<50% inhibition at 10 µM))”. For the same compound, the 5ht3 binding [10] was “∗ (“∗” indicates “primary missed” (<50% inhibition at 10 µM))”, the 5ht5a binding [11] was “∗ (“∗” indicates “primary missed” (<50% inhibition at 10 µM))” and the 5ht6 binding [12] was “∗ (“∗” indicates “primary missed” (<50% inhibition at 10 µM))”. The 5ht7 binding [13] was “∗ (“∗” indicates “primary missed” (<50% inhibition at 10 µM))”, the α1A binding [14] was “∗ (“∗” indicates “primary missed” (<50% inhibition at 10 µM))” and the β1B binding [15] was “∗ (“∗” indicates “primary missed” (<50% inhibition at 10 µM))”. The α2A binding [16] was “∗ (“∗” indicates “primary missed” (<50% inhibition at 10 µM))”, the α2B binding [17] was “∗ (“∗” indicates “primary missed” (<50% inhibition at 10 µM))” and the α2C binding [18] was “∗ (“∗” indicates “primary missed” (<50% inhibition at 10 µM))”. The Beta1 binding [19] was “∗ (“∗” indicates “primary missed” (<50% inhibition at 10 µM))”, the Beta2 binding [20] was “∗ (“∗” indicates “primary missed” (<50% inhibition at 10 µM))” and the CB1 binding [21] was “∗ (“∗” indicates “primary missed” (<50% inhibition at 10 µM))”. The CB2 binding [22] was “∗ (“∗” indicates “primary missed” (<50% inhibition at 10 µM))”, the D1 binding [23] was “∗ (“∗” indicates “primary missed” (<50% inhibition at 10 µM))” and the D2 binding [24] was “∗ (“∗” indicates “primary missed” (<50% inhibition at 10 µM))”. For the same compound, the D3 binding [25] was “∗ (“∗” indicates “primary missed” (<50% inhibition at 10 µM))”, the D4 binding [26] was “∗ (“∗” indicates “primary missed” (<50% inhibition at 10 µM))” and the D5 binding [27] was “∗ (“∗” indicates “primary missed” (<50% inhibition at 10 µM))”.
